{"source": "ChEMBL document CHEMBL4184164", "about": "“Design, synthesis and biological evaluation of novel oseltamivir derivatives as potent neuraminidase inhibitors” (Bioorg Med Chem Lett, 2017)", "data": [{"target": "T1, Sialidase (Clostridium perfringens, UniProt P10481)", "T1 sequence (P10481 whole entry)": "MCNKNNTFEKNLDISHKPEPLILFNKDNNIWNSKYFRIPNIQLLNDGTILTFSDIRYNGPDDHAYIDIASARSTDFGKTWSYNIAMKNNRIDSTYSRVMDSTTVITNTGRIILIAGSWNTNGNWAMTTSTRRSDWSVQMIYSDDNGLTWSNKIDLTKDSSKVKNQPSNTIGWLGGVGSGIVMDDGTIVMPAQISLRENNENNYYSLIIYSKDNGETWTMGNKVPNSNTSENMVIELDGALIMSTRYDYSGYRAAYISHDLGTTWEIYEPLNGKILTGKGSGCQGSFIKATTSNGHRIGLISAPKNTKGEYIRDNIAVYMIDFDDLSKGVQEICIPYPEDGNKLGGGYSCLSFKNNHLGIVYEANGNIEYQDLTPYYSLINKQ", "test": "(§1) Inhibition of Clostridium perfringenes neuraminidase activity using 4-methylumbelliferyl-1-alpha-D-N-acetylneuramic acid sodium salt hydrate as substrate by fluorescence based assay", "settings": "read-out: IC50", "units": {"IC50": "nM"}, "values": [{"smiles": "CCOC(=O)C1=C[C@@H](OC(CC)CC)[C@H](NC(C)=O)[C@@H](N)C1", "note": "[OSELTAMIVIR]", "IC50": 61100}, {"smiles": "CCC(CC)[C@H](NC(C)=O)[C@@H]1[C@H](O)[C@@H](C(=O)O)C[C@H]1NC(=N)N", "note": "[PERAMIVIR ANHYDROUS]", "IC50": 39600}]}, {"target": "T1, Sialidase", "test": "as §1", "settings": "read-out: pIC50 (converted)", "units": {"IC50": "nM"}, "values": [{"smiles": "CCCN[C@@H]1C=C(C(=O)O)C[C@H](N)[C@H]1NC(C)=O", "IC50": 200}, {"smiles": "CCCN(CC)[C@@H]1C=C(C(=O)O)C[C@H](N)[C@H]1NC(C)=O", "IC50": 89.9}, {"smiles": "CCC(CC)N(C)[C@@H]1C=C(C(=O)O)C[C@H](N)[C@H]1NC(C)=O", "IC50": 6}, {"smiles": "CCC(=O)N[C@@H]1C=C(C(=O)O)C[C@H](N)[C@H]1NC(C)=O", "IC50": 2700}, {"smiles": "CCCCN(CC)[C@@H]1C=C(C(=O)O)C[C@H](N)[C@H]1NC(C)=O", "IC50": 84.9}, {"smiles": "CC(=O)N[C@H]1[C@H](N(C)CCc2ccccc2)C=C(C(=O)O)C[C@@H]1N", "IC50": 100}, {"smiles": "CC[C@@H](C)O[C@@H]1C=C(C(=O)O)C[C@H](NC(=N)N)[C@H]1NC(C)=O", "IC50": 0.5}, {"smiles": "CC(=O)N[C@@H]1[C@@H](N)CC(C(=O)O)=C[C@H]1Oc1ccccc1", "IC50": 530}, {"smiles": "CCC(CC)O[C@@H]1C(F)=C(C(=O)O)C[C@H](N)[C@H]1NC(C)=O", "IC50": 3}, {"smiles": "CCCCCCC[C@H](CC)O[C@@H]1C=C(C(=O)O)C[C@H](N)[C@H]1NC(C)=O", "IC50": 1}, {"smiles": "CC(=O)N[C@@H]1[C@@H](N)CC(C(=O)O)=C[C@H]1OCc1ccccc1", "IC50": 619}, {"smiles": "CCCO[C@@H]1C=C(C(=O)O)C[C@H](N=C(N)N)[C@H]1NC(C)=O", "IC50": 2}, {"smiles": "C=CC[C@H](CC)O[C@@H]1C=C(C(=O)O)C[C@H](N)[C@H]1NC(C)=O", "IC50": 1}, {"smiles": "CC(=O)N[C@H]1[C@H](O)C=C(C(=O)O)C[C@@H]1N=C(N)N", "IC50": 100}, {"smiles": "CC[C@@H](CCC1CCCCC1)O[C@@H]1C=C(C(=O)O)C[C@H](N)[C@H]1NC(C)=O", "IC50": 1}, {"smiles": "CC(=O)N[C@@H]1[C@@H](N)CC(C(=O)O)=C[C@H]1NC(=O)C(C)C", "IC50": 6400}, {"smiles": "CC(=O)N[C@H]1[C@H](N(C)C2CCCCC2)C=C(C(=O)O)C[C@@H]1N", "IC50": 200}, {"smiles": "CCC(CC)N[C@@H]1C=C(C(=O)O)C[C@H](N)[C@H]1NC(C)=O", "IC50": 11}, {"smiles": "CC[C@H](C)O[C@@H]1C=C(C(=O)O)C[C@H](N)[C@H]1NC(C)=O", "IC50": 10}, {"smiles": "CC[C@H](C)O[C@@H]1C=C(C(=O)O)C[C@H](NC(=N)N)[C@H]1NC(C)=O", "IC50": 0.5}, {"smiles": "CC(=O)N[C@@H]1[C@@H](N)CC(C(=O)O)=C[C@H]1OC(C)C", "IC50": 180}, {"smiles": "CCC(CC)C(=O)N[C@@H]1C=C(C(=O)O)C[C@H](N)[C@H]1NC(C)=O", "IC50": 4000}, {"smiles": "CCCN(CCC)[C@@H]1C=C(C(=O)O)C[C@H](N)[C@H]1NC(C)=O", "IC50": 12}, {"smiles": "CCCCN(C)[C@@H]1C=C(C(=O)O)C[C@H](N)[C@H]1NC(C)=O", "IC50": 180}, {"smiles": "CC[C@@H](CC1CCCCC1)O[C@@H]1C=C(C(=O)O)C[C@H](N)[C@H]1NC(C)=O", "IC50": 16}, {"smiles": "CC(=O)N[C@@H]1[C@@H](N)CC(C(=O)O)=C[C@H]1OCCC(F)(F)F", "IC50": 225}, {"smiles": "CC(=O)N[C@@H]1[C@@H](N)CC(C(=O)O)=C[C@H]1OC1CCCC1", "IC50": 22}, {"smiles": "COCO[C@@H]1C=C(C(=O)O)C[C@H](N)[C@H]1NC(C)=O", "IC50": 2000}, {"smiles": "CC[C@H](CCc1ccccc1)O[C@@H]1C=C(C(=O)O)C[C@H](N)[C@H]1NC(C)=O", "IC50": 12}, {"smiles": "CC(=O)N[C@@H]1[C@@H](N)CC(C(=O)O)=C[C@H]1OCC(C)C", "IC50": 200}, {"smiles": "CC(=O)N[C@@H]1[C@@H](N)CC(C(=O)O)=C[C@H]1OCCCc1ccc(-c2ccccc2)cc1", "IC50": 89.9}, {"smiles": "CCC(CC)O[C@@H]1C=C(C(=O)O)C[C@H](NC(=N)N)[C@H]1NC(C)=O", "IC50": 0.5}, {"smiles": "CCCCO[C@@H]1C=C(C(=O)O)C[C@H](N=C(N)N)[C@H]1NC(C)=O", "IC50": 3}]}, {"tested_on": "Influenza A virus", "test": "microbe, parasite or virus in culture", "settings": "A/WSN/1933(H1N1), MDCK", "units": {"IC50": "nM"}, "values": [{"smiles": "CCOC(=O)C1=C[C@@H](OC(CC)CC)[C@H](NC(C)=O)[C@@H](N)C1", "note": "[OSELTAMIVIR]", "IC50": 579}, {"smiles": "CCC(CC)[C@H](NC(C)=O)[C@@H]1[C@H](O)[C@@H](C(=O)O)C[C@H]1NC(=N)N", "note": "[PERAMIVIR ANHYDROUS]", "IC50": 1720}]}]}
